Laboratory results published in patent US20230131427A1, “FUNGICIDAL COMPOSITIONS” (SYNGENTA CROP PROTECTION AG, priority 2020, published 2023).
Several values for one entry are separate records, joined by “and”; a condition that tells them apart may be missing. Identical values can stand only once. Like-named read-outs stand apart in the source and are kept apart here. One block for each compound: values may come before it.

Tests used:
Phakopsora pachyrhizi [1] = assay: Phakopsora pachyrhizi / soybean / leaf disc preventative (Asian soybean rust); format: in vivo; conditions: foliar, 288 h, vs untreated control
Protocol: (§1) Leaf disks or leaf segments of various plant species are cut from plants grown in a greenhouse. The cut leaf disks or segments are placed in multiwell plates (24-well format) onto water agar. The leaf disks are sprayed with a test solution before (preventative) or after (curative) inoculation. Compounds to be tested are prepared as DMSO solutions (max. 10 mg/mL) which are diluted to the appropriate concentration with 0.025% Tween20 just before spraying. The inoculated leaf disks or segments are incubated under defined conditions (temperature, relative humidity, light, etc.) according to the respective test system. A single evaluation of disease level is carried out 3 to 14 days after inoculation, depending on the pathosystem. Percent disease control relative to the untreated check leaf disks or segments is then calculated.
Soybean leaf disks are placed on agar in multiwell plates (24-well format) and sprayed with test solutions. After drying, the leaf disks are inoculated with a spore suspension of the fungus. After appropriate incubation the activity of a compound is assessed approx.12 dpi (days after inoculation) as preventive fungicidal activity.

[2] = test system: Glomerella lagenarium (Colletotrichum lagenarium); assay: Glomerella lagenarium (Colletotrichum lagenarium) liquid culture / cucumber / preventative (anthracnose); format: cell-based; conditions: Colletotrichum orbiculare, vs untreated control
Protocol: Mycelia fragments or conidia suspensions of a fungus prepared either freshly from liquid cultures of the fungus or from cryogenic storage, are directly mixed into nutrient broth. DMSO solutions of the test compound (max. 10 mg/mL) are diluted with 0.025% Tween20 by a factor of 50 and 10 μl of this solution is pipetted into a microtiter plate (96-well format). The nutrient broth containing the fungal spores/mycelia fragments is then added to give an end concentration of the tested compound. The test plates are incubated in the dark at 24° C. and 96% relative humidity. The inhibition of fungal growth is determined photometrically after 2 to 7 days, depending on the pathosystem, and percent antifungal activity relative to the untreated check is calculated.
Conidia of the fungus from cryogenic storage are directly mixed into nutrient broth (PDB potato dextrose broth). After placing a (DMSO) solution of test compound into a microtiter plate (96-well format), the nutrient broth containing the fungal spores is added.

[3] = test system: Puccinia recondita f. sp. tritici; assay: Puccinia recondita f. sp. tritici / wheat / leaf disc curative (brown rust); format: in vivo; conditions: foliar, vs untreated control
Protocol: Leaf disks or leaf segments of various plant species are cut from plants grown in a greenhouse. The cut leaf disks or segments are placed in multiwell plates (24-well format) onto water agar. The leaf disks are sprayed with a test solution before (preventative) or after (curative) inoculation. […] The inoculated leaf disks or segments are incubated under defined conditions (temperature, relative humidity, light, etc.) according to the respective test system. […] Percent disease control relative to the untreated check leaf disks or segments is then calculated. Wheat leaf segments cv. Kanzler are placed on agar in multiwell plates (24-well format). The leaf segments are inoculated with a spore suspension of the fungus. […] The formulated test compound diluted in water is applied 1 day after inoculation.

[4] = test system: Puccinia recondita f. sp. tritici; assay: Puccinia recondita f. sp. tritici / wheat / leaf disc preventative (brown rust); format: in vivo; conditions: foliar, vs untreated control
Protocol: as §1
Wheat leaf segments cv. Kanzler are placed on agar in multiwell plates (24-well format) and sprayed with the formulated test compound diluted in water. The leaf disks are inoculated with a spore suspension of the fungus 1 day after application. The inoculated leaf segments are incubated at 19° C. and 75% rh under a light regime of 12 h light/12 h darkness in a climate cabinet and the activity of a compound is assessed as percent disease control compared to untreated when an appropriate level of disease damage appears in untreated check leaf segments (7-9 days after application).

Phakopsora pachyrhizi [5] = assay: Example B5: preventative activity against Phakopsora pachyrhizi (soybean rust), whole soybean plants sprayed, leaf disks inoculated; format: in vivo; conditions: applied alone
Protocol: Whole soybean plants are treated with the recited active ingredients 4 weeks after planting. 1 day after spraying leaf disks are cut from the first trifoliate leaf. Five repetitions at each rate are conducted. The leaf disks are inoculated with Phakopsora pachyrhizi (Asian soybean rust) one day after treatment.
Evaluation of the leaf disks is conducted 11 to 14 days after inoculation and the activity is derived from the relation of the treated vs untreated, infested check (100=no disease, no damage to the leaf, 0=high infestation, leaf damaged heavily). The rates of the active ingredients used are given in the tables as g active ingredient (a.i.)/ha.

Septoria glycines = assay: Example B2: mixtures, preventative activity against Septoria glycines (brown spot), liquid culture; format: cell-based; conditions: Septoria glycines, component A alone
Excerpt: (§2) This occurs whenever the action of an active ingredient combination is greater than the sum of the actions of the individual components. The action to be expected E for a given active ingredient combination obeys the so-called COLBY formula and can be calculated as follows (COLBY, S. R. “Calculating synergistic and antagonistic responses of herbicide combination”. Weeds, Vol. 15, pages 20-22; 1967):
(§3) If the action actually observed (O) is greater than the expected action (E), then the action of the combination is super-additive, i.e. there is a synergistic effect. In mathematical terms, synergism corresponds to a positive value for the difference of (O-E). In the case of purely complementary addition of activities (expected activity), said difference (O-E) is zero. A negative value of said difference (O-E) signals a loss of activity compared to the expected activity.
Conidia of the fungus harvested from a fresh culture grown on artificial media, were directly mixed into nutrient broth (PDB potato dextrose broth). A DMSO solution of the test compounds was placed into a microtiter plate (96-well format) and the nutrient broth containing the fungal spores was added to it.
(§4) Fungicidal activity was evaluated on a 100-0 scale (100=no disease growth; 0=well completely covered by mycelium).

Septoria tritici = assay: Example B3: mixtures, preventative activity against Septoria tritici (leaf blotch), liquid culture; format: cell-based; conditions: component A alone
Excerpt: as §2, §3
(§5) Conidia of the fungus from cryogenic storage were directly mixed into nutrient broth (PDB potato dextrose broth). A DMSO solution of the test compounds was placed into a microtiter plate (96-well format) and the nutrient broth containing the fungal spores was added to it.
as §4

[6] = test system: Glomerella lagenarium syn. Colletotrichum lagenarium; assay: Example B1: mixtures, preventative activity against Glomerella lagenarium syn. Colletotrichum lagenarium, liquid culture; format: cell-based; conditions: Colletotrichum orbiculare, component A alone
Excerpt: as §2, §3, §5, §4

[7] = test system: Mycosphaerella arachidis syn. Cercospora arachidicola; assay: Example B4: mixtures, preventative activity against Mycosphaerella arachidis syn. Cercospora arachidicola (brown leaf spot of peanut), liquid culture; format: cell-based; conditions: Mycosphaerella arachidis, component A alone
Excerpt: as §2, §3, §5
Cercospora arachidicola (Brown leaf spot of peanut). Fungicidal activity was evaluated on a 100-0 scale (100=no disease growth; 0=well completely covered by mycelium).

[8] = Phakopsora pachyrhizi, foliar, read-out: Observed Activity (%) (% of untreated) against Phakopsora pachyrhizi
[9] = Phakopsora pachyrhizi, foliar, 4.5 g/ha, read-out: Observed Activity (%) (% of untreated) against Phakopsora pachyrhizi
[10] = 0.1 ppm, read-out: Activity (%) A

SMILES: CO/C=C(\Oc1cc(-n2ccc(C3CCC3)n2)ccc1C)C(=O)OC [X.04, methyl (Z)-2-[5-(3-cyclobutylpyrazol-1-yl)-2-methyl-phenoxy]-3-methoxy-prop-2-enoate]
- pest or weed control at 67 ppm (Phakopsora pachyrhizi [1]): ≥ 80%
- inhibition of growth at 6.7 ppm [2]: ≥ 80%
- pest or weed control at 200 ppm [3]: ≥ 80%
- pest or weed control at 200 ppm [4]: ≥ 80%
- melting point: 91 to 94 °C

SMILES: CO/C=C(\Oc1cc(-n2ncc(C(C)C)n2)ccc1C)C(=O)OC [X.12, methyl (Z)-2-[5-(4-isopropyltriazol-2-yl)-2-methyl-phenoxy]-3-methoxy-prop-2-enoate]
- pest or weed control at 67 ppm (Phakopsora pachyrhizi [1]): ≥ 80%
- inhibition of growth at 6.7 ppm [2]: ≥ 80%
- pest or weed control at 200 ppm [3]: ≥ 80%
- pest or weed control at 200 ppm [4]: ≥ 80%

SMILES: CCCc1cnn(-c2ccc(C)c(O/C(=C\OC)C(=O)OC)c2)n1 [X.09, methyl (Z)-3-methoxy-2-[2-methyl-5-(4-propyltriazol-2-yl)phenoxy]prop-2-enoate]
- inhibition at 2.25 g/ha (Phakopsora pachyrhizi [5]; [8]): 34%
- inhibition at 4.5 g/ha (Phakopsora pachyrhizi [5]; Phakopsora pachyrhizi, foliar, 4.5 g/ha, read-out: Observed Activity (% of untreated) against Phakopsora pachyrhizi): 94%
- inhibition at 4.5 g/ha (Phakopsora pachyrhizi [5]; [9]): 95%
- inhibition at 9 g/ha (Phakopsora pachyrhizi [5]; Phakopsora pachyrhizi, foliar, 9 g/ha, read-out: Observed Activity (% of untreated) against Phakopsora pachyrhizi): 97%
- inhibition at 18 g/ha (Phakopsora pachyrhizi [5]; Phakopsora pachyrhizi, foliar, 18 g/ha, read-out: Observed Activity (% of untreated) against Phakopsora pachyrhizi): 97%
- Observed Activity (% of untreated) against Phakopsora pachyrhizi (Phakopsora pachyrhizi [5]; 4.5 g/ha): 93% and 81% and 82%
- pest or weed control at 67 ppm (Phakopsora pachyrhizi [1]): ≥ 80%
- inhibition at 0.0025 ppm (Septoria glycines; 0.0025 ppm): 70%
- inhibition at 0.005 ppm (Septoria glycines; 0.005 ppm): 90%
- inhibition at 0.0025 ppm (Septoria tritici; Zymoseptoria tritici, 72 h, 0.0025 ppm): 70%
- inhibition at 0.005 ppm (Septoria tritici; Zymoseptoria tritici, 72 h, 0.005 ppm): 90%
- inhibition of growth at 6.7 ppm [2]: ≥ 80%
- pest or weed control at 200 ppm [3]: ≥ 80%
- pest or weed control at 200 ppm [4]: ≥ 80%
- inhibition at 0.0025 ppm ([7]; 0.0025 ppm): 50%
- inhibition at 0.005 ppm ([7]; 0.005 ppm): 90%

SMILES: CO/C=C(\Oc1cc(-n2ncc(C3CC3)n2)ccc1C)C(=O)OC [X.11, methyl (Z)-2-[5-(4-cyclopropyltriazol-2-yl)-2-methyl-phenoxy]-3-methoxy-prop-2-enoate]
- pest or weed control at 67 ppm (Phakopsora pachyrhizi [1]): ≥ 80%
- inhibition of growth at 6.7 ppm [2]: ≥ 80%
- pest or weed control at 200 ppm [3]: ≥ 80%
- pest or weed control at 200 ppm [4]: ≥ 80%

More lines, main results first:

- melting point: 76 to 80 °C
SMILES: CO/C=C(\Oc1cc(-n2ccc(CC(C)C)n2)ccc1C)C(=O)OC [X.05, methyl (Z)-2-[5-(3-isobutylpyrazol-1-yl)-2-methyl-phenoxy]-3-methoxy-prop-2-enoate]
- pest or weed control at 67 ppm (Phakopsora pachyrhizi [1]): ≥ 80%
- inhibition of growth at 6.7 ppm [2]: ≥ 80%
- pest or weed control at 200 ppm [3]: ≥ 80%
- pest or weed control at 200 ppm [4]: ≥ 80%

- melting point: 154 to 156 °C
SMILES: CO/C=C(\Oc1cc(-n2ccc(C(F)(F)F)n2)ccc1C)C(=O)OC [X.08, methyl (Z)-3-methoxy-2-[2-methyl-5-[3-(trifluoromethyl)pyrazol-1-yl]phenoxy]prop-2-enoate]
- inhibition at 2.25 g/ha (Phakopsora pachyrhizi [5]; [8]): 1%
- inhibition at 4.5 g/ha (Phakopsora pachyrhizi [5]; [9]): 10%
- Observed Activity (% of untreated) against Phakopsora pachyrhizi (Phakopsora pachyrhizi [5]; 18 g/ha): 38% and 77%
- pest or weed control at 67 ppm (Phakopsora pachyrhizi [1]): ≥ 80%
- inhibition at 0.00625 ppm (Septoria glycines; 0.00625 ppm): 0%
- inhibition at 0.025 ppm (Septoria glycines; 0.025 ppm): 70%
- inhibition at 0.03 ppm (Septoria glycines; 0.03 ppm, read-out: Activity (%) A): 70%
- inhibition at 0.05 ppm (Septoria glycines; 0.05 ppm): 90%
- inhibition at 0.1 ppm (Septoria glycines; [10]): 70%
- inhibition at 0.00625 ppm (Septoria tritici; Zymoseptoria tritici, 0.00625 ppm, 100-0 scale): 0%
- inhibition at 0.025 ppm (Septoria tritici; Zymoseptoria tritici, 0.025 ppm, 100-0 scale): 70%
- inhibition at 0.03 ppm (Septoria tritici; Zymoseptoria tritici, 0.03 ppm, 100-0 scale, read-out: Activity (%) A): 50%
- inhibition at 0.1 ppm (Septoria tritici; Zymoseptoria tritici, 0.1 ppm, 100-0 scale, read-out: Activity (%) A): 70%
- Activity (%) A (Septoria tritici; 0.025 ppm, 100-0 scale): 90%
- inhibition of growth at 6.7 ppm [2]: ≥ 80%
- inhibition at 0.03 ppm ([6]; 0.03 ppm): 0%
- inhibition at 0.1 ppm [6, 10]: 0%
- pest or weed control at 200 ppm [4]: ≥ 80%
- inhibition at 0.00625 ppm ([7]; 0.00625 ppm): 0%
- inhibition at 0.025 ppm ([7]; 0.025 ppm): 70%
- inhibition at 0.03 ppm ([7]; 0.03 ppm): 70%

- melting point: 110 to 113 °C
SMILES: CCC(C)c1ccn(-c2ccc(C)c(O/C(=C\OC)C(=O)OC)c2)n1 (stereo not shown) [X.02, methyl (Z)-3-methoxy-2-[2-methyl-5-(3-sec-butylpyrazol-1-yl)phenoxy]prop-2-enoate]
- pest or weed control at 67 ppm (Phakopsora pachyrhizi [1]): ≥ 80%
- inhibition of growth at 6.7 ppm [2]: ≥ 80%
- pest or weed control at 200 ppm [4]: ≥ 80%

- melting point: 115 to 118 °C
SMILES: CO/C=C(\Oc1cc(-n2ccc(C3CC3)n2)ccc1C)C(=O)OC [X.07, methyl (Z)-2-[5-(3-cyclopropylpyrazol-1-yl)-2-methyl-phenoxy]-3-methoxy-prop-2-enoate]
- pest or weed control at 67 ppm (Phakopsora pachyrhizi [1]): ≥ 80%
- inhibition of growth at 6.7 ppm [2]: ≥ 80%
- pest or weed control at 200 ppm [3]: ≥ 80%
- pest or weed control at 200 ppm [4]: ≥ 80%

- melting point: 94 to 97 °C
SMILES: CO/C=C(\Oc1cc(-n2ccc(OC(C)C)n2)ccc1C)C(=O)OC [X.03, methyl (Z)-2-[5-(3-isopropoxypyrazol-1-yl)-2-methyl-phenoxy]-3-methoxy-prop-2-enoate]
- pest or weed control at 67 ppm (Phakopsora pachyrhizi [1]): ≥ 80%
- inhibition of growth at 6.7 ppm [2]: ≥ 80%
- pest or weed control at 200 ppm [3]: ≥ 80%
- pest or weed control at 200 ppm [4]: ≥ 80%
